# From article PMC7692329, “Inhibitory Effect of AB-PINACA, Indazole Carboxamide Synthetic Cannabinoid, on Human Major Drug-Metabolizing Enzymes and Transporters” (Pharmaceutics, 2020)
# Entries after “also recorded” stand apart in the source; their conditions may differ.
# How the values were obtained:
# [1] = molecular target: T1, OAT3 (Homo sapiens, UniProt Q8TCC7); experiment: OAT3-mediated estrone-3-sulfate uptake in HEK293-OAT3 cells; type: in vitro ADME
# T1 construct: host or cells: HEK293
# T1 sequence (Q8TCC7 1-542): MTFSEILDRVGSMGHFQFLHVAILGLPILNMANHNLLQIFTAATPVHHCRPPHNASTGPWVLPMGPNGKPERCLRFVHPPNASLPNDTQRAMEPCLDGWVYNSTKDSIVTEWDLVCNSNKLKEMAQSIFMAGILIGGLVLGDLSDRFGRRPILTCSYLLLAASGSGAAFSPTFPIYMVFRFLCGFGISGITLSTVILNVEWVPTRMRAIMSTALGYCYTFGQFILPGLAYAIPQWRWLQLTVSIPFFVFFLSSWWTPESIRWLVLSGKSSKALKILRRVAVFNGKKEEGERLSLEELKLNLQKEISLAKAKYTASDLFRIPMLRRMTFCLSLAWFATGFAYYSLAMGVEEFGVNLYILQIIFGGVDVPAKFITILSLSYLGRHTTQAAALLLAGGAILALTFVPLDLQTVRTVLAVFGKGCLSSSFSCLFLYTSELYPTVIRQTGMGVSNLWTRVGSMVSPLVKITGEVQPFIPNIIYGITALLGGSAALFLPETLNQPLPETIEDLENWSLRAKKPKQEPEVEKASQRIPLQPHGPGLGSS
# [2] = molecular target: T2, BCRP (Homo sapiens, UniProt Q9UNQ0); experiment: BCRP-mediated B to A transport of estrone-3-sulfate in LLC-PK1-BCRP cells; type: in vitro ADME
# T2 construct: host or cells: LLC-PK1
# [3] = molecular target: T3, CYP2C8 (Homo sapiens, UniProt P10632); experiment: CYP2C8 amodiaquine N-deethylase inhibition in ultrapooled human liver microsomes; details: for IC50: CYP2C8 amodiaquine N-deethylase, ultrapooled human liver microsomes
# T3 sequence (P10632 1-490): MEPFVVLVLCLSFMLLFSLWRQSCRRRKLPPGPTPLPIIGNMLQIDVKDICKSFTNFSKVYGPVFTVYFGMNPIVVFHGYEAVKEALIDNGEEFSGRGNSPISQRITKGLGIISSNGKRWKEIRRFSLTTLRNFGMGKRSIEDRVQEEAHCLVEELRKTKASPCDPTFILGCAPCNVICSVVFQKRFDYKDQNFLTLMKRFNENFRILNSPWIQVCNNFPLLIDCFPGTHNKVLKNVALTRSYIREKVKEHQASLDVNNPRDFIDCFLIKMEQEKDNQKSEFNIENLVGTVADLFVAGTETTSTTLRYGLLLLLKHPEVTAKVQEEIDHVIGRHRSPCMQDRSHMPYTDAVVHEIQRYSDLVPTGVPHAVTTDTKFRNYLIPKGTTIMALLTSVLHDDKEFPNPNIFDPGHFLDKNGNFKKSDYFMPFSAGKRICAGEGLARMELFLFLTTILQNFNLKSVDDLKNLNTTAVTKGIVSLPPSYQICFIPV
# [4] = molecular target: UGT1A6 (Homo sapiens, UniProt P19224); experiment: UGT1A6 N-acetylserotonin glucuronidation inhibition in ultrapooled human liver microsomes
# [5] = molecular target: UGT1A3 (Homo sapiens, UniProt P35503); experiment: UGT1A3 chenodeoxycholic acid 24-acyl-β-glucuronidation inhibition in ultrapooled human liver microsomes
# Chain of UGT1A3 (P35503 29-534): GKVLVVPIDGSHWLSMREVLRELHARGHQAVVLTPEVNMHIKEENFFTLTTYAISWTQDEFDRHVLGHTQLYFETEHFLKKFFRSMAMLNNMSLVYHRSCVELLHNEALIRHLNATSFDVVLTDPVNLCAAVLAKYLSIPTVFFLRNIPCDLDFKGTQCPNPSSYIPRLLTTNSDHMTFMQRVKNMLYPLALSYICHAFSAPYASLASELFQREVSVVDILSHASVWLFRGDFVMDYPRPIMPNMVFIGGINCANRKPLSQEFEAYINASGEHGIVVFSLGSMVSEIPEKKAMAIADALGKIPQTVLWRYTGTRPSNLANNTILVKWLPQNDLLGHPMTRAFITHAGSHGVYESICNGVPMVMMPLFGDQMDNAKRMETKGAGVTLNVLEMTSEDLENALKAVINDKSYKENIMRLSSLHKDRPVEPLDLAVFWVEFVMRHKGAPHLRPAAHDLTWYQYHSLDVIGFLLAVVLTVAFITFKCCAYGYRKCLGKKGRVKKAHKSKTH
# T2 sequence (Q9UNQ0 whole entry): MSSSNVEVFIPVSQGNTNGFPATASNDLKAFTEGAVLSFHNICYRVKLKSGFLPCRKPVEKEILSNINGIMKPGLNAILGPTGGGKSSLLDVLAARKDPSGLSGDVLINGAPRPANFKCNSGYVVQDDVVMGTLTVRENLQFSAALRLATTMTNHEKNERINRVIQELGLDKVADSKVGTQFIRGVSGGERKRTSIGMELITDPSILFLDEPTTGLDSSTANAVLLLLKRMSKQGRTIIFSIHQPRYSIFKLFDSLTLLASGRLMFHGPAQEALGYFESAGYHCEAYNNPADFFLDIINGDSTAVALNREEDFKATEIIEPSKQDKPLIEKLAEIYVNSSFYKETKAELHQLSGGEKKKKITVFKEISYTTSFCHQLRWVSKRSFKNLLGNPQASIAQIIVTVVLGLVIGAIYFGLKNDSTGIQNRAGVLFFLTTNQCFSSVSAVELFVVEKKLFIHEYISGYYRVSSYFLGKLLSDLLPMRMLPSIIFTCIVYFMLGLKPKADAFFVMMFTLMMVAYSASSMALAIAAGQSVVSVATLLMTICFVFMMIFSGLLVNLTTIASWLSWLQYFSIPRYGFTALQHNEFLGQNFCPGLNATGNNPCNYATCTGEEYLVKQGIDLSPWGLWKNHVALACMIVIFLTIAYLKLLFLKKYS
# Chain of UGT1A6 (P19224 27-532): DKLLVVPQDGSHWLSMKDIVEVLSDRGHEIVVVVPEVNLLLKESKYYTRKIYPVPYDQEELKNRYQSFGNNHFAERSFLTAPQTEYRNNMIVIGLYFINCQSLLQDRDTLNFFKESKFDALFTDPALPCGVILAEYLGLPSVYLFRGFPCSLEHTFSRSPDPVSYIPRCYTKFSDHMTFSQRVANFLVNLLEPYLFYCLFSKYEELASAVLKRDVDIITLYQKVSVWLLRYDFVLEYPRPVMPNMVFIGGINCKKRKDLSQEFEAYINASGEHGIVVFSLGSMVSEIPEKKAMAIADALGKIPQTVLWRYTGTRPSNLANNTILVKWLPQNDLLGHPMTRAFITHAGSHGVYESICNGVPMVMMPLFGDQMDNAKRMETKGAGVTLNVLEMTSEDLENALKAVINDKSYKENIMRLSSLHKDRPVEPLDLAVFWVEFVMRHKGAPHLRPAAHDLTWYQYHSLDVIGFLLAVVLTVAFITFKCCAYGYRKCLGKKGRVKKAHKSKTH
compound,measurement,setting,value
"CCCCCn1nc(C(=O)N[C@H](C(N)=O)C(C)C)c2ccccc21 [AB-PINACA, N-[(2S)-1-amino-3-methyl-1-oxobutan-2-yl]-1-pentyl-1H-indazole-3-carboxamide]",IC50,[1],11.8 µM
same,Ki,[1],8.3 µM
same,"Mode of Inhibition, OAT3","[1]; estrone-3-sulfate uptake, HEK293-OAT3 cells",competitively inhibited; also recorded: competitive inhibition
same,IC50,[2],> 100 µM
same,Ki,[3],16.9 µM
same,IC50,"[3]; IC50 With NADPH Preincubation, 30-min preincubation with NADPH",30.1 µM
same,IC50,"[3]; IC50 Without NADPH Preincubation, without NADPH preincubation",32.5 µM
same,"Mode of Inhibition, CYP2C8","[3]; amodiaquine N-deethylation, human liver microsomes",mixed mode of inhibition
same,IC50 shift at 15 min,"[3]; human, liver microsomes, pH 7.4, probe amodiaquine",1.1
same,IC50,[4],94 µM
same,IC50,[5],84.1 µM
